{"source": "ChEMBL document CHEMBL1148212", "about": "“New sphingosines from a gorgonian, Pseudopterogorgia australiensis Ridley, of the Indian Ocean” (J Nat Prod, 2004)", "assay_type_in_all_cases": "functional, organism-based", "key": {"Aspergillus niger": {"test_system": "Aspergillus niger", "assay": "Antimicrobial activity against Aspergillus niger"}, "Staphylococcus aureus": {"test_system": "Staphylococcus aureus", "assay": "Antimicrobial activity against Staphylococcus aureus at 1 mg/mL by cup diffusion method"}, "Candida albicans": {"test_system": "Candida albicans", "assay": "Antimicrobial activity against Candida albicans"}, "Pseudomonas aeruginosa": {"test_system": "Pseudomonas aeruginosa", "assay": "Antimicrobial activity against Pseudomonas aeruginosa at 1 mg/mL by cup diffusion method"}, "Escherichia coli": {"test_system": "Escherichia coli", "assay": "Antimicrobial activity against Escherichia coli at 1 mg/mL by cup diffusion method"}, "Bacillus subtilis": {"test_system": "Bacillus subtilis", "assay": "Antimicrobial activity against Bacillus subtilis at 1 mg/mL by cup diffusion method"}, "Proteus vulgaris": {"test_system": "Proteus vulgaris", "assay": "Antimicrobial activity against Proteus vulgaris at 1 mg/mL by cup diffusion method"}, "Bacillus pumilus": {"test_system": "Bacillus pumilus", "assay": "Antimicrobial activity against Bacillus pumilus at 1 mg/mL by cup diffusion method"}}, "note": "Calls of active or inactive are those of the source. No cut-off for these calls is given here."}
{"smiles": "CCCCCCCCCCCCCCCCCCCCCC(=O)N[C@@H](CO)[C@H](O)CCCCCCCCCCCCCCCC", "values": [{"measurement": "Activity", "setting": "Aspergillus niger", "value": "inactive"}, {"measurement": "Activity", "setting": "Staphylococcus aureus", "value": "Active"}, {"measurement": "Activity", "setting": "Candida albicans", "value": "inactive"}, {"measurement": "Activity", "setting": "Pseudomonas aeruginosa", "value": "Active"}, {"measurement": "Activity", "setting": "Escherichia coli", "value": "Active"}, {"measurement": "Activity", "setting": "Bacillus subtilis", "value": "Active"}, {"measurement": "Activity", "setting": "Proteus vulgaris", "value": "Active"}, {"measurement": "Activity", "setting": "Bacillus pumilus", "value": "Active"}]}
{"smiles": "CCCCCCCCCCCCC/C=C/[C@@H](O)[C@H](CO)NC(=O)CCCCCCCCCCCCCCCC", "values": [{"measurement": "Activity", "setting": "Aspergillus niger", "value": "inactive"}, {"measurement": "Activity", "setting": "Staphylococcus aureus", "value": "Active"}, {"measurement": "Activity", "setting": "Candida albicans", "value": "inactive"}, {"measurement": "Activity", "setting": "Pseudomonas aeruginosa", "value": "Active"}, {"measurement": "Activity", "setting": "Escherichia coli", "value": "Active"}, {"measurement": "Activity", "setting": "Bacillus subtilis", "value": "Active"}, {"measurement": "Activity", "setting": "Proteus vulgaris", "value": "Active"}, {"measurement": "Activity", "setting": "Bacillus pumilus", "value": "Active"}]}
{"smiles": "CCCCCCCCCCCCCCCCC[C@@H](O)C(=O)N[C@@H](CO)[C@H](O)[C@H](O)CCCCCCCCCCCCCCC", "values": [{"measurement": "Activity", "setting": "Aspergillus niger", "value": "inactive"}, {"measurement": "Activity", "setting": "Staphylococcus aureus", "value": "Active"}, {"measurement": "Activity", "setting": "Candida albicans", "value": "inactive"}, {"measurement": "Activity", "setting": "Pseudomonas aeruginosa", "value": "Active"}, {"measurement": "Activity", "setting": "Escherichia coli", "value": "Active"}, {"measurement": "Activity", "setting": "Bacillus subtilis", "value": "Active"}, {"measurement": "Activity", "setting": "Proteus vulgaris", "value": "Active"}, {"measurement": "Activity", "setting": "Bacillus pumilus", "value": "Active"}]}
